The nature of data set [1]: Metabolic (microsomal) stability assay. The following applies: pooled liver microsomes, pH 7.4.
Protocol: The metabolic stability of a test compound is assayed at 37° C. using pooled liver microsomes (mouse or human liver microsomes). An aliquot of 10 μL of 50 μM test compound is mixed with 490 μL of 0.611 mg/mL liver microsomes, then 50 μL of the mixtures are dispensed to the 96 well tubes and warmed at 37° C. for 10 minutes. The reactions are initiated by adding 50 μL of the pre-warmed NADPH regeneration system solution (add 1.2 μL solution, 240 μl solution B, mix with 10.56 ml KPBS) and then incubated at 37° C. The final incubation solution contains 100 mM potassium phosphate (pH 7.4), 1.3 mM NADP+, 3.3 mM glucose 6-phosphate, 0.4 Unit/mL of glucose 6-phosphate dehydrogenase, 3.3 mM magnesium chloride, 0.3 mg/mL liver microsomes and 0.5 μM test article. After 0, 15, 30 and 60 minutes in a shaking incubator, the reactions are terminated by adding 100 μL of acetonitrile containing 200 nM buspirone as an internal standard. All incubations are conducted in duplicate. […] Samples are then centrifuged at 3500 rpm for 10 minutes (4° C.) using Sorvall Legend XRT Centrifuge (Thermo Scientific, GE). Supernatants (40 μL) are transferred into clean 96-deep well plates. Each well is added with 160 μL of ultrapure water (Milli-Q, Millipore Corporation) with 0.1% (v/v) formic acid (Fisher Chemical), mixed thoroughly and subjected to LC/MS/MS analysis in MRM positive ionization mode.
All the samples are measured using a mass spectrometer (QTrap 5500 quadrupole/ion trap) coupled with a Shimadzu HPLC system. The HPLC system consisted of a Shimadzu series degasser, binary quaternary gradient pumps, column heater coupled to an autosampler, and a Phenomenex Gemini-NX, C18, 3.0 μm or Phenomenex Lunar, C8, 5.0 μM HPLC column (Phenomenex, Torrance, CA), and eluted with a mobile phase gradient consisting of Solution A (0.1% formic acid water) and Solution B (0.1% formic acid acetonitrile). The column temperature is maintained at 40° C. All the analytes are detected with positive-mode electrospray ionization (ES+).
The half-life for the metabolic degradation of the test compound is calculated by plotting the time-course disappearance of the test compound during the incubation with liver microsomes. Each plot is fitted to a first-order equation for the elimination of the test compound (% remaining compound) versus time using non-linear regression (Equation 1).
where Ct is the mean relative substrate concentration at time t and C0 is the initial concentration (0.5 μM) at time 0. Note that the area ratio of the substrate peak to an internal standard peak is proportional to the analyte concentration and is used for regression analysis to derive a value of k.
The target of data set [2] is T1, KRAS G12D 1-169 (His-tagged, GDP-loaded) (Homo sapiens, UniProt P01116, G12D).
T1 construct: His -tagged GDP-loaded G12D 1-169; made in house; host or cells: E. coli, e.g. BL21 (DE3)
The data set is described as follows: Covalent modification of KRAS protein by intact-protein LC-MS. The format is binding. The following applies: comparable or same conditions as K-Ras G12S. As for the experimental part:
Test compounds are prepared as 10 mM stock solutions in DMSO (Fisher cat #BP231-100). KRAS protein (His -tagged GDP-loaded wildtype 1-169, His -tagged GDP-loaded G12S 1-169 or His -tagged GDP-loaded G12D 1-169) is diluted to ˜2 μM in appropriate buffer (e.g., a Hepes buffer at physiological conditions). For testing KRAS modification, compounds are diluted to 50× final test concentration in DMSO in 96-well storage plates. 2 μl of the diluted 50× compounds are added to appropriate wells in the PCR plate (Fisher cat #AB-0800). ˜49 μl of the stock protein solution is added to each well of the 96-well PCR plate. Reactions are mixed carefully. The plate is sealed well with aluminum plate seal, and stored in drawer at room temperature for 24 hrs. 5 μl of 2% formic acid (Fisher cat #A117-50) in MilliQ H2O is then added to each well followed by mixing with a pipette. The plate is then resealed with aluminum seal and stored until mass spectrometry analysis.
The extent of covalent modification of KRAS proteins was determined by liquid chromatography electrospray mass spectrometry analysis of the intact proteins on a Thermo Q-Exactive Plus mass spectrometer. 20 μl of sample was injected onto a bioZen 3.6 μm Intact C4 column (Phenomenex cat #00B-4767-AN) placed in a column oven set to 40° C. and separated using a suitable LC gradient from ˜20% to ˜60% solvent B. Solvent A was 0.1% formic acid and solvent B was 0.1% formic acid in acetonitrile. HESI source settings were set to 40, 5 and 1 for the sheath, auxiliary and sweep gas flow, respectively. The spray voltage was 4 kV, and the capillary temperature was 320° C. S-lens RF level was 50 and auxiliary gas heater temperature was set to 200° C. The mass spectrometry was acquired using a scan range from 650 to 1750 m/z using positive polarity at a mass resolution of 70,000, AGC target of 1e6 ions and maximum injection time of 250 ms. The recorded protein mass spectrum was deconvoluted from the raw data file using Protein Deconvolution v4.0 (Thermo). The protein mass and adduct masses were exported with their peak intensities. The peak intensities for the unmodified and modified protein were used to calculate the percent covalent modification of the KRAS protein based on the following equation: % KRAS protein modification=((KRAS−compound)/(KRAS)+(KRAS−Compound))*100.

Bounds are passed on as bounds.

T1 sequence (P01116 1-169 isoform P01116-2 G12D): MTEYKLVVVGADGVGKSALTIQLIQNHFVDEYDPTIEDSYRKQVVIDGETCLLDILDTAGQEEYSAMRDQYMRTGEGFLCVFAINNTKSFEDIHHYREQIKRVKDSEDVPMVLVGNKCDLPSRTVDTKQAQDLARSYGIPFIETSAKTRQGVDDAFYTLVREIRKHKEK

`N#Cc1c(N)sc2c(F)ccc(-c3c(Cl)cc4c(N5CCC6CN(C(=O)Nc7ncccn7)CCC65)nc(OC[C@@]56CCCN5C[C@H](F)C6)nc4c3F)c12` (single isomer, unassigned) [Compound A271] showed a half-life at 0.5 μM in data set [1] above 10 min.

Take `C#Cc1c(F)ccc2cc(O)cc(-c3ncc4c(N5CCOC6(CN(C(=O)n7cncn7)C6)C5)nc(OC[C@@]56CCCN5C[C@H](F)C6)nc4c3F)c12` [Compound A106, (8-(7-(8-ethynyl-7-fluoro-3-hydroxynaphthalen-1-yl)-8-fluoro-2-(((2R,7aS)-2-fluoro-tetrahydro-1H-pyrrolizin-7a(5H)-yl)methoxy)pyrido-[4,3-d]pyrimidin-4-yl)-5-oxa-2,8-diazaspiro[3.5]nonan-2-yl)(1H-1,2,4-triazol-1-yl)-methanone]: the half-life at 0.5 μM in data set [1] is above 10 min.

For `N#Cc1c(N)sc2c(F)ccc(-c3c(Cl)cc4c(N5CCCC6(CN(C(=O)n7cncn7)C6)C5)nc(OC[C@@]56CCCN5C[C@H](F)C6)nc4c3F)c12` [Compound A129, 4-(4-(2-(1H-1,2,4-triazole-1-carbonyl)-2,6-diazaspiro[3.5]-nonan-6-yl)-6-chloro-8-fluoro-2-(((2R,7aS)-2-fluorotetrahydro-1H-pyrrolizin-7a(5H)-yl)meth-oxy)quinazolin-7-yl)-2-amino-7-fluorobenzo[b]thiophene-3-carbonitrile], the half-life at 0.5 μM in data set [1] was above 10 min. On the same count and under the same terms, next, `N#Cc1c(N)sc2c(F)ccc(-c3c(Cl)cc4c(N5CCOC6(CN(C(=O)n7cncn7)C6)C5)nc(OC[C@@]56CCCN5C[C@H](F)C6)nc4c3F)c12` [Compound A132, 4-(4-(2-(1H-1,2,4-triazole-1-carbonyl)-5-oxa-2,8-diaza-spiro[3.5]nonan-8-yl)-6-chloro-8-fluoro-2-(((2R,7aS)-2-fluorotetrahydro-1H-pyrrolizin-7a(5H)-yl)methoxy)quinazolin-7-yl)-2-amino-7-fluorobenzo-[b]thiophene-3-carbonitrile]: above 10 min.

For the compound `Nc1nc2c(-c3c(Cl)cc4c(N5CCCCC6(CN(C(=O)n7cncn7)C6)C5)nc(OC[C@@]56CCCN5C[C@H](F)C6)nc4c3F)ccc(F)c2s1` [Compound A265, (6-(7-(2-amino-7-fluorobenzo-[d]thiazol-4-yl)-6-chloro-8-fluoro-2-(((2R,7aS)-2-fluoro-tetrahydro-1H-pyrrolizin-7a(5H)-yl)methoxy)quinazolin-4-yl)-2,6-diazaspiro[3.6]decan-2-yl)(1H-1,2,4-triazol-1-yl)-methanone], in data set [2], the “covalent labeling of K-Ras G12D” value is given as “essentially no detectable labeling”.

Consider `N#Cc1c(N)sc2c(F)ccc(-c3c(Cl)cc4c(N5CCCC6(CCN(C(=O)n7cncn7)C6)C5)nc(OC[C@@]56CCCN5C[C@H](F)C6)nc4c3F)c12` (stereo partly drawn) [Compound A269, 4-(4-(2-(1H-1,2,4-triazole-1-carbonyl)-2,7-diazaspiro[4.5]-decan-7-yl)-6-chloro-8-fluoro-2-(((2R,7aS)-2-fluorotetrahydro-1H-pyrrolizin-7a(5H)-yl)meth-oxy)quinazolin-7-yl)-2-amino-7-fluorobenzo[b]thiophene-3-carbonitrile], for which the “covalent labeling of K-Ras G12D” value in data set [2] is on record as “essentially no detectable labeling”.

Turning to `C[C@H](Oc1nc(N2CCOC3(CN(C(=O)n4cncn4)C3)C2)c2cc(Cl)c(-c3ccc(F)c4sc(N)c(C#N)c34)c(F)c2n1)[C@@H]1CCCN1C` [Compound A275, 4-(4-(2-(1H-1,2,4-triazole-1-carbonyl)-5-oxa-2,8-diazaspiro-[3.5]nonan-8-yl)-6-chloro-8-fluoro-2-((S)-1-((S)-1-methyl-pyrrolidin-2-yl)ethoxy)quin-azolin-7-yl)-2-amino-7-fluoro-benzo[b]thiophene-3-carbonitrile], the “covalent labeling of K-Ras G12D” value in data set [2] is reported as “essentially no detectable labeling”.

In the case of `Nc1nc2c(-c3c(Cl)cc4c(N5CC6(CCN(C(=O)n7cncn7)C6)C5)nc(OC[C@@]56CCCN5C[C@H](F)C6)nc4c3F)ccc(F)c2s1` [Compound A279, (2-(7-(2-amino-7-fluorobenzo-[d]thiazol-4-yl)-6-chloro-8-fluoro-2-(((2R,7aS)-2-fluoro-tetrahydro-1H-pyrrolizin-7a(5H)-yl)methoxy)quinazolin-4-yl)-2,6-diazaspiro[3.4]octan-6-yl)(1H-1,2,4-triazol-1-yl)-methanone], the “covalent labeling of K-Ras G12D” value in data set [2] is “essentially no detectable labeling”.

For the compound `Cc1nc(C)n(C(=O)N2CC3(C2)CN(c2nc(OC[C@@]45CCCN4C[C@H](F)C5)nc4c(F)c(-c5ccc(F)c6sc(N)c(C#N)c56)c(Cl)cc24)CCO3)n1` [Compound A283, 2-amino-4-(6-chloro-4-(2-(3,5-dimethyl-1H-1,2,4-triazole-1-carbonyl)-5-oxa-2,8-diazaspiro-[3.5]nonan-8-yl)-8-fluoro-2-(((2R,7aS)-2-fluorotetrahydro-1H-pyrrolizin-7a(5H)-yl)meth-oxy)quinazolin-7-yl)-7-fluoro-benzo[b]thiophene-3-carbonitrile], in data set [2], the “covalent labeling of K-Ras G12D” value is reported as “essentially no detectable labeling”. Still for that read-out and setting: next, `N#Cc1c(N)sc2c(F)ccc(-c3c(Cl)cc4c(N5CC6(CCCCN(C(=O)n7cncn7)C6)C5)nc(OC[C@@]56CCCN5C[C@H](F)C6)nc4c3F)c12` [Compound A285, 4-(4-(6-(1H-1,2,4-triazole-1-carbonyl)-2,6-diazaspiro[3.6]-decan-2-yl)-6-chloro-8-fluoro-2-(((2R,7aS)-2-fluorotetra-hydro-1H-pyrrolizin-7a(5H)-yl)methoxy)quinazolin-7-yl)-2-amino-7-fluorobenzo[b]thio-phene-3-carbonitrile]: “essentially no detectable labeling”; `C#Cc1c(F)ccc2cc(O)cc(-c3ncc4c(N5CCOCC6(CN(C(=O)n7cnc(C)n7)C6)C5)nc(OC[C@@]56CCCN5C[C@H](F)C6)nc4c3F)c12` [Compound A298, (9-(7-(8-ethynyl-7-fluoro-3-hydroxynaphthalen-1-yl)-8-fluoro-2-(((2R,7aS)-2-fluoro-tetrahydro-1H-pyrrolizin-7a(5H)-yl)methoxy)pyrido[4,3-d]pyrimidin-4-yl)-6-oxa-2,9-diazaspiro[3.6]decan-2-yl)(3-methyl-1H-1,2,4-triazol-1-yl)-methanone]: “essentially no detectable labeling”; `Cc1ncn(C(=O)N2CCCC(Oc3nc(OC[C@@]45CCCN4C[C@H](F)C5)nc4c(F)c(-c5ccc(F)c6sc(N)c(C#N)c56)c(Cl)cc34)C2)n1` (stereo partly drawn) [Compound A302, 2-amino-4-(6-chloro-8-fluoro-2-(((2R,7aS)-2-fluorotetrahydro-1H-pyrrolizin-7a(5H)-yl)meth-oxy)-4-((1-(3-methyl-1H-1,2,4-triazole-1-carbonyl)piperidin-3-yl)oxy)quinazolin-7-yl)-7-fluorobenzo[b]thiophene-3-carbonitrile]: “essentially no detectable labeling”. On to `Cc1ncn(C(=O)N2CC3CCN(c4nc(OC[C@@]56CCCN5C[C@H](F)C6)nc5c(F)c(-c6ccc(F)c7sc(N)c(C#N)c67)c(Cl)cc45)C3C2)n1` (stereo partly drawn) [Compound A304, 2-amino-4-(6-chloro-8-fluoro-2-(((2R,7aS)-2-fluorotetrahydro-1H-pyrrolizin-7a(5H)-yl)meth-oxy)-4-(5-(3-methyl-1H-1,2,4-triazole-1-carbonyl)hexahydro-pyrrolo[3,4-b]pyrrol-1(2H)-yl)quinazolin-7-yl)-7-fluoro-benzo[b]thiophene-3-carbonitrile], for which the “covalent labeling of K-Ras G12D” value in data set [2] was “essentially no detectable labeling”.

(Values after patent US20240368191A1, “HETEROCYCLIC COMPOUNDS AND USES THEREOF” (Kumquat Biosciences Inc., priority 2021, published 2024).)
